Experimental data as given in article PMC12395807, “Chemoreceptor family in plant-associated bacteria responds preferentially to the plant signal molecule glycerol 3-phosphate” (Genome Biology, 2025).

Experiments:
R3 LBD (WP_006464688.1) = test: Thermal shift ligand screening of R3; type: binding, Herbaspirillum frisingense; details: thermal shift assay, R3, arrays PM1, PM2A, PM3B, PM4A
Procedure: Assays were carried out on a MyIQ2 Real-Time PCR instrument (Bio-Rad, Hercules, CA, USA). Ligand solutions were prepared by dissolving the array compounds in 50 µL of Milli-Q water, which, according to the manufacturer, corresponds to a concentration of 10–20 mM. Freshly purified proteins were dialyzed into analysis buffer (Additional file 2: Table S4). Compound arrays PM1, PM2A (carbon sources), PM3B (nitrogen sources), and PM4A (phosphorus and sulfur sources) from Biolog (https://www.biolog.com/) were used. The compositions of these arrays are provided in Additional file 2: Table S1. The experiments were conducted in 96-well plates, and each assay mixture contained 20 µL of the dialyzed protein (at 80–50 µM), 2 µL of 5 × SYPRO orange (Life Technologies, Eugene, Oregon, USA), and 2.5 µL of the resuspended array compound or the equivalent amount of buffer in the ligand-free control. The samples were heated from 23 to 85 °C at a scan rate of 1 °C/min. The protein unfolding curves were monitored by detecting changes in SYPRO® Orange fluorescence. The Tm values were determined from the first derivative values of the raw fluorescence data.

[1] = test system: Pectobacterium atrosepticum SCRI1043; test: Growth experiment, sole carbon source; type: cell-based; details: PFM9 minimal medium, 5 mM ligand, 30 °C, 48 h
Procedure: P. atrosepticum SCRI1043 was cultured overnight in phosphate-free M9-based medium (PFM9) supplemented with 20 mM glucose as the carbon source and 500 µM inorganic phosphate as the phosphate source. Cultures were washed and then diluted to an OD600 of 0.02 in PFM9 supplemented with different PacP ligands as the sole carbon or phosphorous source at a final concentration of 5 mM. Subsequently, 200 µL aliquots of these cultures were transferred into microwell plates, which were subsequently grown at 30 °C on a Bioscreen microbiological growth analyzer (Oy Growth Curves Ab Ltd., Helsinki, Finland) for 48 h.

[2] = test system: PacP-LBD mutant (Y86, H100, R105, Y121, K148 and Y167 replaced by alanine); test: ITC binding to PacP-LBD binding site motif mutant; parameters: species or system Pectobacterium atrosepticum; details: 36 μM PacP-LBD alanine mutant; 1 mM glycerol 3-phosphate, 2.5 mM glyceraldehyde 3-phosphate
Procedure: Plasmids for the overexpression of the different proteins were transformed into E. coli BL21(DE3). The resulting strains were grown under continuous stirring (200 rpm) at 30 °C in 2-L Erlenmeyer flasks containing 500 mL of LB medium supplemented with 50 μg/mL kanamycin. At an OD660 of 0.5, protein expression was induced by the addition of 0.1 mM isopropyl β-D-1-thiogalactopyranoside. Growth was continued at 16 °C overnight prior to cell harvesting by centrifugation at 10,000 × g for 20 min. Cell pellets were resuspended in buffer A (Additional file 2: Table S4) and subsequently broken by French press treatment at 62.5 lb/in^2. After centrifugation at 20,000 × g for 30 min, the supernatants were loaded onto 5-mL HisTrap HP columns (Amersham Biosciences) equilibrated with buffer A, and the proteins were eluted with a linear gradient of buffer B (Additional file 2: Table S4). All proteins contain a hexa-histidine tag at the N-terminal extension (Additional file 2: Table S3) and were purified at 4 °C. […]
All experiments were conducted on a VP microcalorimeter (Microcal, MA) at 15 °C for PacP-LBD and at 20 °C for the remaining proteins. […] The mean enthalpies measured from the injection of the ligands into the analysis buffer were subtracted from the raw titration data prior to data analysis with the MicroCal version of ORIGIN. […]

[3] = target: LBD of chemoreceptor R2 (WP_136157342.1) (Brenneria roseae, UniProt A0A2U1TV64, H128N/K136R); type: binding; details: ITC, 20 °C, R2 LBD; Nb = no binding
Procedure: Plasmids for the overexpression of the different proteins were transformed into E. coli BL21(DE3). The resulting strains were grown under continuous stirring (200 rpm) at 30 °C in 2-L Erlenmeyer flasks containing 500 mL of LB medium supplemented with 50 μg/mL kanamycin. At an OD660 of 0.5, protein expression was induced by the addition of 0.1 mM isopropyl β-D-1-thiogalactopyranoside. Growth was continued at 16 °C overnight prior to cell harvesting by centrifugation at 10,000 × g for 20 min. Cell pellets were resuspended in buffer A (Additional file 2: Table S4) and subsequently broken by French press treatment at 62.5 lb/in^2. After centrifugation at 20,000 × g for 30 min, the supernatants were loaded onto 5-mL HisTrap HP columns (Amersham Biosciences) equilibrated with buffer A, and the proteins were eluted with a linear gradient of buffer B (Additional file 2: Table S4). All proteins contain a hexa-histidine tag at the N-terminal extension (Additional file 2: Table S3) and were purified at 4 °C. The purified proteins were dialyzed overnight into the corresponding analysis buffers (Additional file 2: Table S4) for immediate analysis.
All experiments were conducted on a VP microcalorimeter (Microcal, MA) at 15 °C for PacP-LBD and at 20 °C for the remaining proteins. Proteins were dialyzed into the analysis buffers specified in Additional file 2: Table S4, placed into the sample cell and titrated with aliquots of ligand solutions (1 to 10 mM) freshly prepared in dialysis buffer. The mean enthalpies measured from the injection of the ligands into the analysis buffer were subtracted from the raw titration data prior to data analysis with the MicroCal version of ORIGIN. The data were fitted with the “One binding site model” of ORIGIN.

LBD of chemoreceptor R2 (WP_136157342.1), sequence (A0A2U1TV64 28-178 H128N/K136R): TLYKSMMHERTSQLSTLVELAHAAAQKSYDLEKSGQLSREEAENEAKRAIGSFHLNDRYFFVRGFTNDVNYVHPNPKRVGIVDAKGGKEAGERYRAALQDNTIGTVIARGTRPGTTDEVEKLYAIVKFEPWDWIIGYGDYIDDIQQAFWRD

O=P(O)(O)OCC(O)CO (stereo not shown) [glycerol 3-phosphate]
Tm change (R3 LBD (WP_006464688.1)): significant increases in the Tm | growth as sole carbon source [1]: supported growth | binding in microcalorimetric titration [2]: absence of binding | KD [3]: showed binding
